Data from ChEMBL document CHEMBL1201862, “PubChem BioAssay data set” (2004).
Activity calls are given as the source filed them.

Experiments:
Cytochrome P450 3A4 = Cytochrome P450 3A4 (Homo sapiens, UniProt P08684); conditions: Potency;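 further: confirmatory qHTS run detecting inhibitors and substrates of CYP3A4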
[1] = molecular target: T1, Replicative DNA helicase DnaB (Mycobacterium tuberculosis, UniProt P9WMR3); experiment: DnaB intein splicing inhibitors, dose response, biochemical, cell-free fluorescence (AID 449749); type: functional
T1 sequence (P9WMR3 whole entry): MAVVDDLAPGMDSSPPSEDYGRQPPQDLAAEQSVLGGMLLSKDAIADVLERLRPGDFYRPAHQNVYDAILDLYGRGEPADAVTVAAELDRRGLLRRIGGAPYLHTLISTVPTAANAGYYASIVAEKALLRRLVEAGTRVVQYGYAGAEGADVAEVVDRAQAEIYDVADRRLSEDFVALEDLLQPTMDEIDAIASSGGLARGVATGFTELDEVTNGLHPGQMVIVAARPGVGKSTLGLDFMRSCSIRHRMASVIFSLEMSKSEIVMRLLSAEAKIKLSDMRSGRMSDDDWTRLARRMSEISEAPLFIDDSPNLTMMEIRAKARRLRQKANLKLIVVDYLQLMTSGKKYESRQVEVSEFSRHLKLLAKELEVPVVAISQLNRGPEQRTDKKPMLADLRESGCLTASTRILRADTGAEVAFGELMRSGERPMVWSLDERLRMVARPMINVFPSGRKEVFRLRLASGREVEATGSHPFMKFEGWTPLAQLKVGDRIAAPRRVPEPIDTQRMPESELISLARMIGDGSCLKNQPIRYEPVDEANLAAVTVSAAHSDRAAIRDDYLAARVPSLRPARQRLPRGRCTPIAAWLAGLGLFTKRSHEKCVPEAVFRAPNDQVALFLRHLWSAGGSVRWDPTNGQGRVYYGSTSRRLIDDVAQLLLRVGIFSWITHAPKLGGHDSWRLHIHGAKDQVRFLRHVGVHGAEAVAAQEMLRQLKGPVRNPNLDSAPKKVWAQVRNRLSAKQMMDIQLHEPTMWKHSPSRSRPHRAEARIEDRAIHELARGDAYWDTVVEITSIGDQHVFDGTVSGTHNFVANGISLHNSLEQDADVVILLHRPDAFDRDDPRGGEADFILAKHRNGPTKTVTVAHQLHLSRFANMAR

Protein RecA = molecular target: T2, Protein RecA (Mycobacterium tuberculosis, UniProt P9WHJ3); experiment: Fluorescence Cell-Free Homogeneous Dose Retest to Identify Inhibitors of RecA-Intein Splicing Activity. [Related pubchem assays (depositor defined):AID2097, AID2223, AID489010, AID492950]; type: functional
T2 sequence (P9WHJ3 whole entry): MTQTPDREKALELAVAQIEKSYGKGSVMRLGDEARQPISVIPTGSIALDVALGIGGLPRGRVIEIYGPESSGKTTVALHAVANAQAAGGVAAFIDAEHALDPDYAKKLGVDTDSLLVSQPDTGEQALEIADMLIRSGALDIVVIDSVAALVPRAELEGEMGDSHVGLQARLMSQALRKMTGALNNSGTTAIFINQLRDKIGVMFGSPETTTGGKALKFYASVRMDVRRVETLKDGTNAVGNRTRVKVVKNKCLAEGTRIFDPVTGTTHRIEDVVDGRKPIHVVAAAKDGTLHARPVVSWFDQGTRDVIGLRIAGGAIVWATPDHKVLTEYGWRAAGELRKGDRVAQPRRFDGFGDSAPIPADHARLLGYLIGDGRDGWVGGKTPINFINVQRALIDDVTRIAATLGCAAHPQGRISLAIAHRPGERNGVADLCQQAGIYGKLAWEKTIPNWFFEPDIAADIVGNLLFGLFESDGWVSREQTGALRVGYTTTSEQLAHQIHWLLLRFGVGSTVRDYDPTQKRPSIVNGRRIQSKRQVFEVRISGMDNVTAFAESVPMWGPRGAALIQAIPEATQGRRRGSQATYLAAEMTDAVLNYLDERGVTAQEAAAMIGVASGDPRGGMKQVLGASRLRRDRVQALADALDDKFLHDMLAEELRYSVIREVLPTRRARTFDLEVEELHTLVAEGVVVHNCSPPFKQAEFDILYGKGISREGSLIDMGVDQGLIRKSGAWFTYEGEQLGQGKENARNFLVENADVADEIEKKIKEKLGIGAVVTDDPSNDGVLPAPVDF

Leucine aminopeptidase = molecular target: T3, Leucine aminopeptidase (Plasmodium falciparum 3D7, UniProt Q8IL11); experiment: P. falciparum M17LAP inhibitors, primary screen, biochemical, fluorogenic H-Leu-NHMec substrate, 1536-well (AID 1619); type: functional
T3 sequence (Q8IL11 whole entry): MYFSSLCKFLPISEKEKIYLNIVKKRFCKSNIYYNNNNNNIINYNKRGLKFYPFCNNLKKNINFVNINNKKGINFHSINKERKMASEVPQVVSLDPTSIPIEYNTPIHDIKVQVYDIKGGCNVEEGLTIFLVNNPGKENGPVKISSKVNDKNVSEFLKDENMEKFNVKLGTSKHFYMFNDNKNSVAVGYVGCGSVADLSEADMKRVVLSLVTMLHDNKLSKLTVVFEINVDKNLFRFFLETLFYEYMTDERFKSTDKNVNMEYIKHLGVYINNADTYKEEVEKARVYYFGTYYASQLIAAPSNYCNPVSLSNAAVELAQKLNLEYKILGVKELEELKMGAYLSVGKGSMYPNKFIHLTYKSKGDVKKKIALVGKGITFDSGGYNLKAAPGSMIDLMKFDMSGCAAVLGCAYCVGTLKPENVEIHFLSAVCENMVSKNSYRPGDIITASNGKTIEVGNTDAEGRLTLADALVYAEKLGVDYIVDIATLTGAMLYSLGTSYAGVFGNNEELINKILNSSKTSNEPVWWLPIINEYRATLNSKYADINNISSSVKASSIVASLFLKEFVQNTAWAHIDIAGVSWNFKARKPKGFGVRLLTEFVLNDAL

[2] = viability of uninfected HEp-2 cells – cell-based, HTS, cytotoxicity control for RSV inhibitor project, dose response (AID 2410); type: functional; conditions: human respiratory syncytial virus
Aminopeptidase N = molecular target: T4, Aminopeptidase N (Plasmodium falciparum FcB1/Columbia, UniProt O96935); experiment: malaria alanyl aminopeptidase activity blockers – biochemical, fluorogenic H-Leu-NHMec substrate, 1536-well (AID 1445); parameters: species or system Plasmodium falciparum 3D7, 3D7
T4 sequence (O96935 whole entry): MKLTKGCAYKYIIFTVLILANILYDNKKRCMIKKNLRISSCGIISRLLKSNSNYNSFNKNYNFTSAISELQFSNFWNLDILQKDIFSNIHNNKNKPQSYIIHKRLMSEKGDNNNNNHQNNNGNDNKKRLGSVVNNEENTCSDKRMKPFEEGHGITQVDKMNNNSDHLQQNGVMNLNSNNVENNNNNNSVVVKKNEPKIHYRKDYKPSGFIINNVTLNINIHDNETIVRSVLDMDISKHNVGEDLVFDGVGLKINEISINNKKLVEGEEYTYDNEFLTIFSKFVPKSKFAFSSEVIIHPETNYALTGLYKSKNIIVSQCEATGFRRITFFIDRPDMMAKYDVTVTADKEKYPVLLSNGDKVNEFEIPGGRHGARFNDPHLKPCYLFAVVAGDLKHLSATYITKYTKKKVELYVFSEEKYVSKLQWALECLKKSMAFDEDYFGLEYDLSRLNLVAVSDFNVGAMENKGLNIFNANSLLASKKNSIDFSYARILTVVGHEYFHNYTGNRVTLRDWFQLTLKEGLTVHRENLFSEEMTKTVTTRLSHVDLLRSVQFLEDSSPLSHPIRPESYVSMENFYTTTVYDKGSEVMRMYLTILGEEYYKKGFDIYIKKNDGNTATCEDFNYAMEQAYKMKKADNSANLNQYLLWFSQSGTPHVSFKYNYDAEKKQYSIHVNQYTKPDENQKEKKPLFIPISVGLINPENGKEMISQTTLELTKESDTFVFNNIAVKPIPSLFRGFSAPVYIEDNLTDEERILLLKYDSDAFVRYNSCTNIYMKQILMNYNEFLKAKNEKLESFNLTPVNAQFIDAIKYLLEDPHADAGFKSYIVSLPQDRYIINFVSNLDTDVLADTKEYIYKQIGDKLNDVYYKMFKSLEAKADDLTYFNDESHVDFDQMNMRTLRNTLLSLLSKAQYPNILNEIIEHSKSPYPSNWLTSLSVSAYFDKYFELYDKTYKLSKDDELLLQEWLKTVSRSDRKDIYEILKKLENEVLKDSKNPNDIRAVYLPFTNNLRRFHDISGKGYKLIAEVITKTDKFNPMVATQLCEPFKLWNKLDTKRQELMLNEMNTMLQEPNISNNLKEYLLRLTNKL

Vero = experiment: cells; type: functional; conditions: Chlorocebus sabaeus
[3] = molecular target: T5, Ubiquitin-conjugating enzyme E2 N (Homo sapiens, UniProt P61088); type: functional;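 further: Dose-response confirmation in a TR-FRET assay detecting UBC13-driven polyubiquitin chain formation, inhibition measured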
T5 sequence (P61088 whole entry): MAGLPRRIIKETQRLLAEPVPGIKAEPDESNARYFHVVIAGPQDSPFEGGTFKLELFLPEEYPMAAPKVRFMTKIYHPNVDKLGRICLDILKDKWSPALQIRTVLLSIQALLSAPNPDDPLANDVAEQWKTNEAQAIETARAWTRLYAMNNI

HEK293 [4] = experiment: cells; type: functional, cell-based; conditions: Homo sapiens
HEK293 [5] = experiment: NOD2 signaling inhibitors in MDP-stimulated cells, cell-based, uHTS, luminescence (AID 2001); type: functional; conditions: Homo sapiens
HEK293 [6] = experiment: cells; type: functional, cell-based; conditions: Homo sapiens; remark: listed apart in the source
[7] = molecular target: Nucleotide-binding oligomerization domain-containing protein 2 (Homo sapiens, UniProt Q9HC29); experiment: inhibition of NOD2-driven NF-kB reporter – cell-based, luminescence, uHTS, HEK293 (AID 1566); type: functional
Chain of Nucleotide-binding oligomerization domain-containing protein 2 (Q9HC29 whole entry, the tested form may be a part): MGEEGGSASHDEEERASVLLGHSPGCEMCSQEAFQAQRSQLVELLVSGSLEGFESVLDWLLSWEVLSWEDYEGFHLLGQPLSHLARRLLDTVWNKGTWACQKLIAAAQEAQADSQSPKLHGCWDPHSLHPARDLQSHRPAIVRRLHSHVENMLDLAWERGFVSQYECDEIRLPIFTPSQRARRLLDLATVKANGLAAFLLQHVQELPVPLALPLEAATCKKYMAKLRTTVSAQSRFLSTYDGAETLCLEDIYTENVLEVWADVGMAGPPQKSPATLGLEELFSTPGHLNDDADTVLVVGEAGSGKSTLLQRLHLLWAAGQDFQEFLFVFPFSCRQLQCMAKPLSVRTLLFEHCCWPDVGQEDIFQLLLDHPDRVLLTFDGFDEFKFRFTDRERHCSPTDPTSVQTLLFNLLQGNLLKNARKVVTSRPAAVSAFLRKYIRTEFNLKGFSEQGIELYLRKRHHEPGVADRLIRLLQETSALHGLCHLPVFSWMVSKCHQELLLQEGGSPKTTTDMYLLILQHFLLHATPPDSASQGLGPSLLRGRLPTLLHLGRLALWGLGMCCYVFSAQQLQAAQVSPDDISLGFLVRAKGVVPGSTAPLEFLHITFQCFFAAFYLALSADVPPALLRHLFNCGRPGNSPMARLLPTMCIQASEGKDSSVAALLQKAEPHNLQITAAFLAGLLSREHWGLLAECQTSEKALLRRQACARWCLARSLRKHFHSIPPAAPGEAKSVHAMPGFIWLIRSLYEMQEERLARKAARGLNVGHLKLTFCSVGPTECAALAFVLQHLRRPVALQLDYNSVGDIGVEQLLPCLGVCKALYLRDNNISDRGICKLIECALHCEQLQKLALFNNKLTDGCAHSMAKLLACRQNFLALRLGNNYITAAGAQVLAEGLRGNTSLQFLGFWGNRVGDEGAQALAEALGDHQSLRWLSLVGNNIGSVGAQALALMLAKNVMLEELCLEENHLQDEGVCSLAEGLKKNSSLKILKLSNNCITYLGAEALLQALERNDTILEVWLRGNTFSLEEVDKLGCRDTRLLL

HEK293 [8] = experiment: inhibition of NOD1-driven NF-kB reporter – cell-based, luminescence, uHTS, primary screen (AID 1578); type: functional; conditions: Homo sapiens
HEK293 [9] = experiment: cells; type: functional, cell-based; conditions: Homo sapiens; remark: listed apart in the source
[10] = molecular target: T6, RNA-binding protein pos-1 (Caenorhabditis elegans, UniProt G5EF15); experiment: disruptors of C. elegans POS-1 RNA interaction – biochemical, fluorescence polarization, dose response (AID 1964);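 further: purified POS-1 fused to maltose binding protein made in E. coli; potency of compounds blocking POS-1 binding to fluorescent RNA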
T6 sequence (G5EF15 whole entry): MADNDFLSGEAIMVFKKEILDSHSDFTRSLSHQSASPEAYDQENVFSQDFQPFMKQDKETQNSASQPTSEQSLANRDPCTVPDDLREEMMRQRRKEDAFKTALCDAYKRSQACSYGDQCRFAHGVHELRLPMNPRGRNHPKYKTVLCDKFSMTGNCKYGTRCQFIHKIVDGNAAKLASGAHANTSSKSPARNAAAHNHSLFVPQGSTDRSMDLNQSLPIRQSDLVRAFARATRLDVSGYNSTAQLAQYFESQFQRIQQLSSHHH

[11] = molecular target: T7, Voltage-gated N-type calcium channel alpha-1B subunit/Amyloid beta A4 precursor protein-binding family A member 1 (Homo sapiens, UniProt Q00975+Q02410); type: protein assay
T7 sequence (Q00975 whole entry): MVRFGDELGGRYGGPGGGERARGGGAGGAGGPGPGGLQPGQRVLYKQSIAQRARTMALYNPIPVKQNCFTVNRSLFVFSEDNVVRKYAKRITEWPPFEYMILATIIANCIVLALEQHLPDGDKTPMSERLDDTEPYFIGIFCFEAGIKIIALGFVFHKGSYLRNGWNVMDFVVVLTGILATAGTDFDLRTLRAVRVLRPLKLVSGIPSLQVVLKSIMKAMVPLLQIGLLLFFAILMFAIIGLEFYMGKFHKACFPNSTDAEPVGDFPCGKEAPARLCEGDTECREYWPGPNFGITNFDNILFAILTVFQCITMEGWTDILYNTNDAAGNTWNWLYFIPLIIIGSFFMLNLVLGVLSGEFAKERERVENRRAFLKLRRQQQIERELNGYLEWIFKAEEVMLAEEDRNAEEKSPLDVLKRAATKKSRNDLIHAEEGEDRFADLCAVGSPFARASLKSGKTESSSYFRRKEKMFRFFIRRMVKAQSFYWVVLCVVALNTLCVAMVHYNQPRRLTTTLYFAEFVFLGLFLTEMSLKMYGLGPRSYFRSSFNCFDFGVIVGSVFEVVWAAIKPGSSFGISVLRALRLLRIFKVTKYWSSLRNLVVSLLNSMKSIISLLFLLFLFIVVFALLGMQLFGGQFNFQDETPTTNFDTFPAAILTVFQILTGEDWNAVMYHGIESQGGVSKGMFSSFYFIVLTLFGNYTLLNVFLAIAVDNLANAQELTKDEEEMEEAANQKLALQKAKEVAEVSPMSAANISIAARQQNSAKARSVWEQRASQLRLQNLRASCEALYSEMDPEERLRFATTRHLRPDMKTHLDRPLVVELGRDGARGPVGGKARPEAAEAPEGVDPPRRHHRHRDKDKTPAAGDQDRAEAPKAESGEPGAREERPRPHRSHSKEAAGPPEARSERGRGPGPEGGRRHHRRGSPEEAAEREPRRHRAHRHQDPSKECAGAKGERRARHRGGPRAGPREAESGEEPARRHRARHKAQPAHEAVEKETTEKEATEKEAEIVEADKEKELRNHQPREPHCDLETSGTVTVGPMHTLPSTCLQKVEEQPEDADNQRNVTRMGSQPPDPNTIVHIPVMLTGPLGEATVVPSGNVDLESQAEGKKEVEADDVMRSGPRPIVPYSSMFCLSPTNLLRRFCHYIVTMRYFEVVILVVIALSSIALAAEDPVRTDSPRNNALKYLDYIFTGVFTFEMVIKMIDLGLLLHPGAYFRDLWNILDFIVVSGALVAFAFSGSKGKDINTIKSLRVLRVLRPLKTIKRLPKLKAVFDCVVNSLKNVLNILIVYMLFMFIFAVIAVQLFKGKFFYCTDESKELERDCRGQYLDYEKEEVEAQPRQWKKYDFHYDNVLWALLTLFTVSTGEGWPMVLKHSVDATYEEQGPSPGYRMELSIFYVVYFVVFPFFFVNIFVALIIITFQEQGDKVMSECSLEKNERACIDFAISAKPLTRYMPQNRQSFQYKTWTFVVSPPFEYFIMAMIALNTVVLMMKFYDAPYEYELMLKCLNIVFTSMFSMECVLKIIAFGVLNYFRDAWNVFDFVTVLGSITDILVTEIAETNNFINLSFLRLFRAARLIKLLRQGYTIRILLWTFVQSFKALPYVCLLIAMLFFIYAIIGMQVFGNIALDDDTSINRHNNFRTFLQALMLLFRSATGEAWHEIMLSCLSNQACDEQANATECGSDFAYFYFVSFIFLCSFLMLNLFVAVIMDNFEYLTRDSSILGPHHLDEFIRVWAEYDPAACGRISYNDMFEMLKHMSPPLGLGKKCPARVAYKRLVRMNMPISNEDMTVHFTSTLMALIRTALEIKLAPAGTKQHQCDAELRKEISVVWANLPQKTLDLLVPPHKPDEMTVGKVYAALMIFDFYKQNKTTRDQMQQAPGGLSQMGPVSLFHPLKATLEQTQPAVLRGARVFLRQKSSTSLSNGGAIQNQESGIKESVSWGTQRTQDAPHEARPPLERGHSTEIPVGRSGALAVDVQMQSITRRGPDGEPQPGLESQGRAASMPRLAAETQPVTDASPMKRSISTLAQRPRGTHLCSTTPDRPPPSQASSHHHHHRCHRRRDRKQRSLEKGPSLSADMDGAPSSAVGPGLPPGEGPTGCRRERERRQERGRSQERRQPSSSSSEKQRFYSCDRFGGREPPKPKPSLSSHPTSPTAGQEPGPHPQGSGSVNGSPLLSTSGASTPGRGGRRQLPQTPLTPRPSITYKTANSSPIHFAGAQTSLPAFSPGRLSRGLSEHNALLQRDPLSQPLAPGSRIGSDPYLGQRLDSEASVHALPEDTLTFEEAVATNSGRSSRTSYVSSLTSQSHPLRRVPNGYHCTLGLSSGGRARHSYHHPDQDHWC
T7 sequence (Q02410 whole entry): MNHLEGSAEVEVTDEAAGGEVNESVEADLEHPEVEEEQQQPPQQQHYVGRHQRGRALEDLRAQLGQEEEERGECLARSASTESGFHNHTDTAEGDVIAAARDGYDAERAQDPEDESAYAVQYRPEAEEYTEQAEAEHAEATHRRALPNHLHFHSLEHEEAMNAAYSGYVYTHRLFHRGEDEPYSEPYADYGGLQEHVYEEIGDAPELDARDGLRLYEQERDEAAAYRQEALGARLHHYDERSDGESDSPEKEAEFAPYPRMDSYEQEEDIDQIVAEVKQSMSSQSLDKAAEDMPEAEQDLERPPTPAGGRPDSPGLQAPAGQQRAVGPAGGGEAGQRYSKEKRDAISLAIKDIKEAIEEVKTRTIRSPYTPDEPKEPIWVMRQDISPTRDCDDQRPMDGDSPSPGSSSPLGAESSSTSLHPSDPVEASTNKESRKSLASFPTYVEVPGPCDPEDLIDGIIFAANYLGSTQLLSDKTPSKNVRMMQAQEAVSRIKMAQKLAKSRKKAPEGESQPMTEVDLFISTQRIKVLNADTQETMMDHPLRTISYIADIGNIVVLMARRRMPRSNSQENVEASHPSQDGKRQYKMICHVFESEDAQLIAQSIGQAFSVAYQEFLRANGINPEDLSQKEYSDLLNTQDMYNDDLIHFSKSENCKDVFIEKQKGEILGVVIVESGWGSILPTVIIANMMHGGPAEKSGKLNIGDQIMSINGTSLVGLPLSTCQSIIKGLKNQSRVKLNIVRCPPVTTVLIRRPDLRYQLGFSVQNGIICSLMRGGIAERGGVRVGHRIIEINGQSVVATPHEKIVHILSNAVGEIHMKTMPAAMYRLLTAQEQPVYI

[12] = molecular target: T7, Voltage-gated N-type calcium channel alpha-1B subunit/Amyloid beta A4 precursor protein-binding family A member 1; type: protein assay; remark: listed apart in the source
[13] = molecular target: Glyceraldehyde-3-phosphate dehydrogenase (Homo sapiens, UniProt P04406)
Chain of Glyceraldehyde-3-phosphate dehydrogenase (P04406 whole entry): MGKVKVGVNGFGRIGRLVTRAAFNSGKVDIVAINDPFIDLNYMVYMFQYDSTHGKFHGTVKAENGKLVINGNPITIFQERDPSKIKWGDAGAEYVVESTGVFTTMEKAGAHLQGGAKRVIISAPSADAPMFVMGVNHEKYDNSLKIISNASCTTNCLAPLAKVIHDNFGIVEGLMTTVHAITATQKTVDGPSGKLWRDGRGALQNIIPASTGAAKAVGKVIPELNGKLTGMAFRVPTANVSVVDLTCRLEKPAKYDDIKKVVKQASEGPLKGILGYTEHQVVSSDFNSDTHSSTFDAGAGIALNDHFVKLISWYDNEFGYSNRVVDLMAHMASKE

Chain of Cytochrome P450 3A4 (P08684 whole entry): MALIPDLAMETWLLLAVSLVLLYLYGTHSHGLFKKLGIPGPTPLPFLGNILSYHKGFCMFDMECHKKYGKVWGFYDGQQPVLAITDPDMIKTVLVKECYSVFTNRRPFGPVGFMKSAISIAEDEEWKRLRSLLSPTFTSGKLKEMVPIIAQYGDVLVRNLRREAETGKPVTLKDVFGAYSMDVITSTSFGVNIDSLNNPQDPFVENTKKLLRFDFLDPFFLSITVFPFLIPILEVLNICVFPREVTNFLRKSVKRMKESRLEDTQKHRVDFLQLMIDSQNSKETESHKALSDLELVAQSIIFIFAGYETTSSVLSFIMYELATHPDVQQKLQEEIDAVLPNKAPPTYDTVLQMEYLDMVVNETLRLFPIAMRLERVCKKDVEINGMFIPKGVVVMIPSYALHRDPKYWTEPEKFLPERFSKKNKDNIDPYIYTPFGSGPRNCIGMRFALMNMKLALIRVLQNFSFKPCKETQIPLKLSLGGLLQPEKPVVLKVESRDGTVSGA

CC1(C)C(O)CC[C@]2(C)C1CC[C@@]1(C)C2C(=O)C=C2[C@@H]3C[C@@](C)(C(=O)O)CC[C@@]3(C)CCC21C (some centres undefined)
AC50 (Cytochrome P450 3A4): 39.8 µM (inconclusive)

C/C(CC(=O)Nc1cc(C)ccn1)=N\NC(=O)COc1cccc(C)c1
AC50 [1]: 2.37 µM (active) | EC50 (Protein RecA): 1.54 µM (active) | IC50 (Leucine aminopeptidase): 90.2 µM (active)

COC(=O)c1cc(Nc2cc(C)c3c(O)cccc3n2)cc(C(=O)OC)c1
IC50 (cells): > 50 µM (active) | CC50 [2]: 44.4 µM (active)

C=CCSc1nnc(NC(=O)c2nc(SCC)ncc2Cl)s1
IC50 (Aminopeptidase N): 94.3 µM (active) | IC50 (Leucine aminopeptidase): 10.8 µM (active)

CCOC(=O)C1=C(COCCN)N=C(C)/C(=C(/O)OC)C1c1ccccc1Cl (centres undefined)
CC50 (Vero): > 25 µM (active) | IC50 [3]: > 20 µM (inactive)

Nc1nonc1-c1nc2ccccc2n1CC(=O)N/N=C/c1ccc(-c2ccccc2C(=O)O)o1
IC50 (Aminopeptidase N): 82.7 µM (active) | IC50 (Leucine aminopeptidase): 73.8 µM (active)

CCn1c(SCC(=O)Nc2nc(-c3ccccc3)cs2)nnc1-c1ccccc1
IC50 (HEK293 [4]): > 20 µM (inactive) | IC50 (HEK293 [5]): 5.74 µM (active) | IC50 (HEK293 [6]): 6.13 µM (active) | EC50 [7]: 7.91 µM (active) | EC50 (HEK293 [8]): 7.28 µM (active) | IC50 (HEK293 [9]): 11.3 µM (active)

COc1ccccc1CNC(=O)C1CCCN1S(=O)(=O)c1cccc2cccnc12 (centres undefined)
IC50 (cells): 18.6 µM (active)

COc1ccccc1NC(=O)c1cc(S(=O)(=O)NCc2ccccc2)ccc1F
IC50 [3]: > 20 µM (inactive)

Cc1cccc2c3c(ccc12)C1=C(C(=O)C3=O)C(C)CO1 (centres undefined)
AC50 (Cytochrome P450 3A4): 12.6 µM (inconclusive)

COc1ccc(-n2c(C)cc(/C=C3\C(=N)N4N=C(CC(=O)N5CCOCC5)SC4=NC3=O)c2C)c(OC)c1
IC50 (cells): 11.7 µM (active) | CC50 [2]: 11.1 µM (active)

CCOc1cc(/C=C2\C(=N)N3N=C(S(C)(=O)=O)SC3=NC2=O)ccc1OCCOc1cccc(OC)c1
IC50 (HEK293 [4]): > 20 µM (inactive) | IC50 (HEK293 [5]): > 20 µM (inactive) | IC50 (HEK293 [6]): > 20 µM (inactive) | EC50 [7]: 14.5 µM (active) | EC50 (HEK293 [8]): > 20 µM (inactive) | IC50 (HEK293 [9]): > 20 µM (inactive) | EC50 [10]: > 300 µM (not active)

Cc1cc(C)cc(N(C(=O)c2snc(C(N)=O)c2N)C(C(=O)NCC2CCCO2)c2cccs2)c1 (centres undefined)
IC50 [3]: > 20 µM (inactive)

O=c1cc(CO)oc(C(Nc2cccc(C(F)(F)F)c2)c2ccccn2)c1O (centres undefined)
IC50 [11]: 1.09 µM (active) | IC50 [12]: 8.71 µM (active) | IC50 [3]: > 20 µM (inactive)

CCN(CC)C(=O)c1cc(-c2ccc(Cl)cc2Cl)n[nH]1
IC50 [13]: > 10 µM (inconclusive)

COc1ccc(C(=O)CC(=O)c2c(O)cc(OC)cc2OC)cc1
AC50 (Cytochrome P450 3A4): 3.98 µM (inconclusive)

O=C1C(Cl)=C(N2CCN(CCO)CC2)C(=O)N1c1ccc(C(F)(F)F)cc1
IC50 [13]: > 50 µM (inconclusive)

Cc1c(-c2ccc(OCc3ccccc3)cc2)nc2ccccc2c1C(=O)O
IC50 (cells): 24.7 µM (active) | CC50 [2]: 42.6 µM (active)
